Measured values taken from patent publication US5491217A, “LHRH antagonists having modified aminoacyl residues at positions 5 and 6” (TAP Holding Inc., priority 1994, dated 1996).
Where a SMILES comes first, the peptide text is derived from it. [ ]: non-standard residue; d: D form. NMePhe(4-NO2) = CN[C@@H](Cc1ccc([N+](=O)[O-])cc1)C(=O)O; dPhe(4-Cl) = N[C@H](Cc1ccc(Cl)cc1)C(=O)O; d2Nal = N[C@H](Cc1ccc2ccccc2c1)C(=O)O; dCit = NC(=O)NCCC[C@@H](N)C(=O)O; d3Pal = N[C@H](Cc1cccnc1)C(=O)O

Biological target: T1, LHRH (Rattus norvegicus, UniProt P30969)
T1 construct: endogenous in cells
T1 sequence (P30969 1-327): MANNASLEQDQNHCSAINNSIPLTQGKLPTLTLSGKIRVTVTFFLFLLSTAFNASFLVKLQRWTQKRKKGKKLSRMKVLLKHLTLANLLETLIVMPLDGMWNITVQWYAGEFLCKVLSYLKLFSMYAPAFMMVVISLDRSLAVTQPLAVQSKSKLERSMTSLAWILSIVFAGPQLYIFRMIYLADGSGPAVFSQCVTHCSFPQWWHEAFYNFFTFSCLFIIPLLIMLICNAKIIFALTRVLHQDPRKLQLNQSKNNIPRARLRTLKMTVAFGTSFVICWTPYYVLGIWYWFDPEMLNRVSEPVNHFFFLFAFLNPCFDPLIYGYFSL
Assay: in vitro test for LHRH antagonist potency (pA2) against the agonist leuprolide
Type: cell-based
Conditions: negative logarithm of the concentration of antagonist which shifts the response curve produced by the agonist leuprolide to two-fold higher concentration
Protocol: Representative compounds of the present invention were evaluated in in vitro tests for receptor binding (pKI) and for LHRH antagonist potency (pA2). The tests employed the methods detailed in F. Haviv, et al. J. Med. Chem, 32: 2340-2344 (1989). The receptor binding affinities (pKI) are the negative logarithms of the equilibrium dissociation constants, and the values of pA2 are the negative logarithms of the concentration of antagonist which shift the response curve produced by the agonist leuprolide to two-fold higher concentration. (Leuprolide is the LHRH agonist having the structure 5-ox--Pro^1 --His^2 --Trp^3 --Ser^4 -- Tyr^5 --D--Leu^6 --Leu^7 --Arg^8 --Pro^9 --NHEt and is disclosed and claimed in U.S. Pat. No. 4,005,063.) Typically pA2 values of 9.5 or greater are indicative of good LHRH antagonist potency.

pA2 | Compound | Kb [pM]
– | CC(=O)N[C@H](Cc1ccc2ccccc2c1)C(=O)N[C@H](Cc1ccc(Cl)cc1)C(=O)N[C@H](Cc1cccnc1)C(=O)N[C@@H](CO)C(=O)N(C)[C@@H](Cc1ccc([N+](=O)[O-])cc1)C(=O)N[C@H](CCCNC(N)=O)C(=O)N[C@@H](CC(C)C)C(=O)N[C@@H](CCCNC(=N)N)C(=O)N1CCC[C@H]1C(=O)N[C@H](C)C(N)=O [Example 1, NAc--D-2Nal--D-4ClPhe--D-3Pal--Ser--NMe(4-NO2)Phe--D--Cit--Leu--Arg--Pro--DAlaNH2] (Ac-[d2Nal][dPhe(4-Cl)][d3Pal]S[NMePhe(4-NO2)][dCit]LRP[dA]-NH2) | 5.5
11.22 | NAc--D2Nal--D4ClPhe--D3Pal--Ser--NMe(4-Atza)Phe--DLyS(Nic)--Leu--Lys(Isp)-- ProDAlaNH2 [Example 3] | –
10.68 | NAc--D-2Nal--D-4ClPhe--D-3Pal--Ser--NMe--(4-Atza)Phe--D--(4-Atza)Phe--Leu --Lys(Isp)--Pro--D--AlaNH2 [Example 5] | –
10.35 | NAc--D-2Nal--D-4ClPhe--D-3Pal--Ser--NMeTyr--D-(4-Atza)Phe--Leu--Lys(Isp)--Pro--D--AlaNH2 [Example 4] | –
